Test results as given in patent EP4509511A1, “SUBSTITUTED SPIRO-ISOXAZOLINYL LACTAMS, SALTS THEREOF AND THEIR USE AS HERBICIDALLY ACTIVE SUBSTANCES” (Bayer Aktiengesellschaft, priority 2023, dated 2025).

What was measured:
[1] = tested on: ABUTH; assay: Herbicidal post-emergence action - Part I; assay type: in vivo, Abutilon theophrasti; conditions: 1280 g/ha, one-leaf stage, rated visually after about 3 weeks vs untreated controls
Experimental: (§1) Seeds of mono- and dicotyledonous weed plants were placed in plastic pots in sandy loam soil (doubly sown with in each case one species of mono- or dicotyledonous weed plants per pot), covered with soil and cultivated in a greenhouse under controlled growth conditions. 2 to 3 weeks after sowing, the test plants were treated at the one-leaf stage. The compounds of the invention, formulated in the form of wettable powders (WP) or as emulsion concentrates (EC), were applied onto the green parts of the plants as aqueous suspension or emulsion with addition of 0.5% additive at a water application rate of 600 liters per hectare (converted). After the test plants had been kept in the greenhouse under optimum growth conditions for about 3 weeks, the activity of the preparations was rated visually in comparison to untreated controls. For example, 100% activity = the plants have died, 0% activity = like control plants. Tables B1 to B12, below, show the effects of selected compounds of the general formula (I) according to table 1 on various harmful plants and an application rate corresponding to 1280 g/ha or below obtained by the experimental procedure mentioned above. Table B1a: post-emergence activity at 1280g/ha against ABUTH in %

[2] = tested on: DIGSA; assay: Herbicidal post-emergence action - Part I; assay type: in vivo, Digitaria sanguinalis; conditions: one-leaf stage, rated visually after about 3 weeks vs untreated controls
Experimental: as §1

Cc1ccsc1C1=NOC2(CCCN(Cc3c(F)cccc3F)C2=O)C1 (racemic) [Compound I-2]
90%: post-emergence activity at 1280g/ha against ABUTH in % [1] | post-emergence activity at 320g/ha against DIGSA in % ([2]; 320 g/ha) | post-emergence activity at 1280g/ha against DIGSA in % ([2]; 1280 g/ha)
